PubChem BioAssay (NCI)
“And” between values parts separate entries of the source, which are not always exact repeats. Equal entries are not always repeated.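 Step 1: Grow cells in 96-well plates. Step 2: Expose to compound for 48 hours at 5 concentrations. Step 3: Interpolate endpoints linearly; if unreached, use highest concentration. Here, GI50 denotes the concentration required for 50% inhibition of growth. At the TGI there is no net growth.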

Key:
Assay in all cases: NCI-60 cell line screen, 48 h
SK-MEL-2 melanoma = test system: SK-MEL-2 melanoma
A549 NSCLC = test system: A549 NSCLC
CAKI-1 renal = test system: CAKI-1 renal
T-47D breast = test system: T-47D breast
HL-60(TB) leukemia = test system: HL-60(TB) leukemia
DU-145 prostate = test system: DU-145 prostate
OVCAR-5 ovarian = test system: OVCAR-5 ovarian
UACC-62 melanoma = test system: UACC-62 melanoma
MOLT-4 leukemia = test system: MOLT-4 leukemia
OVCAR-8 ovarian = test system: OVCAR-8 ovarian

| SMILES | TGI (SK-MEL-2 melanoma) | TGI (A549 NSCLC) | TGI (CAKI-1 renal) | TGI (T-47D breast) | TGI (HL-60(TB) leukemia) | TGI (DU-145 prostate) | TGI (OVCAR-5 ovarian) | TGI (UACC-62 melanoma) | TGI (MOLT-4 leukemia) | TGI (OVCAR-8 ovarian) | GI50 (SK-MEL-2 melanoma) | GI50 (A549 NSCLC) | GI50 (CAKI-1 renal) | GI50 (T-47D breast) | GI50 (HL-60(TB) leukemia) | GI50 (DU-145 prostate) | GI50 (OVCAR-5 ovarian) | GI50 (UACC-62 melanoma) | GI50 (MOLT-4 leukemia) | GI50 (OVCAR-8 ovarian) |
| --- | --- | --- | --- | --- | --- | --- | --- | --- | --- | --- | --- | --- | --- | --- | --- | --- | --- | --- | --- | --- |
| CC(NCCN(C)C)C1CCC2C3CCc4cc(O)ccc4C3CCC12C (stereo not given) | 3.79 µM | 13.6 µM | 4.32 µM | 5.29 µM | 4.15 µM | 18.6 µM | 18.3 µM | 3.45 µM | 5.19 µM | 11 µM |  |  |  |  |  |  |  |  |  |  |
| COc1ccc(-n2cc(-c3cc(OC)c(OC)c(OC)c3)nc2SCc2cccc(C#N)c2)cc1OC | > 100 µM | > 100 µM | > 100 µM | > 100 µM | > 100 µM | > 100 µM | > 100 µM | > 100 µM | > 100 µM |  | > 100 µM | 82.3 µM | > 100 µM | > 100 µM | > 100 µM | > 100 µM | > 100 µM | > 100 µM | 51.7 µM |  |
| NCC(=O)Nc1ccc(Cl)cc1C(=O)c1ccc[nH]1 | > 100 µM | > 100 µM | > 100 µM | > 100 µM | > 100 µM | > 100 µM | > 100 µM | > 100 µM | > 100 µM | > 100 µM |  |  |  |  |  |  |  |  |  |  |
| CC(C)(C)OC(=O)N(CCCCN(CCCn1c2c(c3ccccc3c1=O)C(=O)c1ccccc1-2)C(=O)OC(C)(C)C)CCCn1c2c(c3ccccc3c1=O)C(=O)c1ccccc1-2 | > 100 µM | > 100 µM | > 100 µM | > 100 µM | > 100 µM | > 100 µM |  | > 100 µM | > 100 µM | > 100 µM | 65.1 µM | 18.9 µM | 19.9 µM | > 100 µM | > 100 µM | 48.1 µM |  | 92.8 µM | > 100 µM | > 100 µM |
| COc1ccc(-c2nc(NC(=O)CS(=O)(=O)c3ccc(F)cc3)sc2C)cc1 | 34.1 µM |  | > 100 µM | 80.6 µM | 66 µM | > 100 µM | > 100 µM | 32.9 µM | > 100 µM | 89.3 µM | 15.2 µM |  | 24.2 µM | 21.7 µM | 16.5 µM | 34.5 µM | 36 µM | 13.1 µM | 14.5 µM | 24.1 µM |
| COc1ccc2c(=O)c(-c3cc(OC)c(OC)cc3OC)coc2c1 | > 100 µM | > 100 µM | > 100 µM | > 100 µM | 2.92 µM | > 100 µM | > 100 µM | > 100 µM | > 100 µM | > 100 µM |  |  |  |  |  |  |  |  |  |  |
| Cc1cccc(CNc2c3ccccc3nc3ccccc23)c1 | 4.14 µM | 4.86 µM | 5.03 µM | 4.61 µM | 5.28 µM | 11.7 µM | 6.81 µM | 3.48 µM | 11.3 µM | 9.82 µM | 1.94 µM | 1.88 µM | 1.61 µM | 1.83 µM | 2.26 µM | 3.28 µM | 1.92 µM | 1.61 µM | 3.06 µM | 2.48 µM |
| CCC/C=C/C=C/C(=O)OC1/C(=C/C(=O)OC)CC2CC(C(C)O)OC(=O)CC(O)CC3CC(OC(C)=O)C(C)(C)C(O)(CC4C/C(=C/C(=O)OC)CC(/C=C/C(C)(C)C1(O)O2)O4)O3 (stereo not given) | > 10.9 µM and 11 µM and > 12.5 µM | 8.17 µM and 11 µM and > 12.5 µM | 10.9 µM and 11 µM and > 12.5 µM | 11 µM and > 12.5 µM | 10.9 µM and 5.43 µM and > 12.5 µM | > 12.5 µM | > 12.5 µM | > 10.9 µM and 11 µM and > 12.5 µM | 10.6 µM and 10.5 µM and > 12.5 µM | > 10.9 µM and 11 µM and > 12.5 µM | > 10.9 µM and 5.77 µM and > 12.5 µM | 2.58 µM and 5.95 µM and > 12.5 µM | 2.79 µM and 4.05 µM and > 12.5 µM | > 12.5 µM | 4.61 µM and 1.81 µM and > 12.5 µM | > 11 µM | > 11 µM | > 10.9 µM and 5.26 µM and > 12.5 µM | 5.48 µM and 3.26 µM and > 12.5 µM | > 10.9 µM and 7.33 µM and > 12.5 µM |
| NC(CSC(c1ccccc1)(c1ccccc1)c1ccccc1)C(=O)O (stereo not given) | 5.34 µM and 9.72 µM and 5.63 µM | 82.1 µM and > 100 µM | 51.6 µM and > 100 µM | 54.9 µM and 53.4 µM | 5.93 µM and 1.53 µM and 8.62 µM | 85.5 µM and > 100 µM | 89.4 µM and > 100 µM | 42.9 µM and > 100 µM | 83.8 µM and 15.9 µM and > 100 µM | 51.5 µM and 35.7 µM and > 100 µM | 1.51 µM and 0.886 µM | 4.86 µM and 2.75 µM | 15.2 µM and 7.17 µM | 3.46 µM | 2.54 µM and 2.11 µM | 6.02 µM and 4.1 µM | 4.28 µM | 2.01 µM and 3.98 µM | 7.54 µM and 5.01 µM | 1.93 µM and 1.05 µM |
| Nc1nc(N)nc(CCCCc2nc(N)nc(N)n2)n1 | > 100 µM | > 100 µM | > 100 µM | > 100 µM | > 100 µM | > 100 µM | > 100 µM | > 100 µM | > 100 µM | > 100 µM |  |  |  |  |  |  |  |  |  |  |
| N[C@H]1CCC[C@@H](O)C1O (stereo not given in full) | > 100 µM | > 100 µM | > 100 µM | > 100 µM | > 100 µM | > 100 µM | > 100 µM | > 100 µM | > 100 µM | > 100 µM |  |  |  |  |  |  |  |  | > 100 µM |  |
| O=C(O)/C=C/c1c2ccc(=O)c(O)c-2oc2c(O)c(O)ccc12 | > 100 µM | > 100 µM | > 100 µM | > 100 µM | > 100 µM | > 100 µM | > 100 µM | > 100 µM | 49.2 µM | > 100 µM |  |  |  |  |  |  |  |  |  |  |
| CN(C)Cc1ccc(NC(=O)c2cncc(C#Cc3cnc(N)c4ncccc34)c2)cc1C(F)(F)F | 27 µM | 3.41 µM | 11.5 µM | 65.3 µM | 2.51 µM | 3.16 µM | 2.6 µM | 2.53 µM | 2.75 µM | 3.85 µM | 1.56 µM | 1.67 µM | 3.48 µM | 15.8 µM | 0.937 µM | 1.73 µM | 1.27 µM | 1.19 µM | 0.701 µM | 1.82 µM |
| O=[N+]([O-])c1ccccc1/C=N\NC(=S)N/N=C/c1ccccc1[N+](=O)[O-] | > 100 µM | > 100 µM | > 100 µM | > 100 µM | > 100 µM | 38.2 µM | > 100 µM | > 100 µM | > 100 µM | > 100 µM | 6.41 µM | 8.92 µM | 3.46 µM | 4.93 µM | 3.59 µM | 5.34 µM | 51 µM | 4.52 µM | 6.47 µM | 11.9 µM |
| CCN1C(=O)N(CC)C2C1NN=c1s/c(=C3\C(=O)Nc4ccccc43)c(=O)n12 (stereo not given) | 30 µM | > 100 µM | 34.8 µM | > 100 µM | 0.91 µM | 33.6 µM | > 100 µM | 23.9 µM | > 100 µM | > 53.7 µM | 1.34 µM | 0.812 µM | 0.404 µM | 0.42 µM | 0.296 µM | 0.492 µM | 2.31 µM | 0.371 µM | 0.549 µM | 0.639 µM |
